Test results as given in ChEMBL document CHEMBL2169851, “Imidazopyridazinones as novel PDE7 inhibitors: SAR and in vivo studies in Parkinson's disease model” (Bioorg Med Chem Lett, 2012).
Active and inactive are the calls of the source. The rule behind the calls is not given here.

Tests used:
Mus musculus [1] = experiment: Neurotoxicity in C57BL/6 mouse assessed as haloperidol-induced deffect in motor coordination at 3 mg/kg, ip administered 15 mins prior to haloperidol challenge measured at 0.5 to 1 hr post haloperidol challenge; type: toxicity, organism-based; parameters: dose 3 mg/kg, route intraperitoneal; settings: in vivo
Mus musculus [2] = experiment: Neurotoxicity in C57BL/6 mouse assessed as potentiation of haloperidol-induced catalepsy at 1 to 10 mg/kg, ip administered 15 mins prior to haloperidol challenge measured at 0.5 to 1 hr post haloperidol challenge; type: toxicity, organism-based; parameters: route intraperitoneal; settings: in vivo
Mus musculus [3] = experiment: Neurotoxicity in C57BL/6 mouse assessed as induction of catalepsy at 1 to 10 mg/kg, ip measured at 0.5 to 1 hr; type: toxicity, organism-based; parameters: route intraperitoneal; settings: in vivo
Mus musculus [4] = experiment: Neurotoxicity in C57BL/6 mouse assessed as induction of catalepsy at 30 mg/kg, ip measured at 0.5 to 1 hr; type: toxicity, organism-based; parameters: dose 30 mg/kg, route intraperitoneal; settings: in vivo
Mus musculus [5] = experiment: Antiparkinsonian activity in C57BL/6 mouse assessed as decrease in MPTP-induced rearing behavior impairment at 30 mg/kg, ip administered 15 mins on day 7 post MPTP challenge; type: functional, organism-based; parameters: dose 30 mg/kg
[6] = molecular target: T1, High affinity 3',5'-cyclic-AMP phosphodiesterase 7A (Mus musculus, UniProt P70453); experiment: Inhibition of mouse PDE7A assessed as [3H]cAMP hydrolysis after 5 to 15 mins by scintillation counter
T1 sequence (P70453 whole entry): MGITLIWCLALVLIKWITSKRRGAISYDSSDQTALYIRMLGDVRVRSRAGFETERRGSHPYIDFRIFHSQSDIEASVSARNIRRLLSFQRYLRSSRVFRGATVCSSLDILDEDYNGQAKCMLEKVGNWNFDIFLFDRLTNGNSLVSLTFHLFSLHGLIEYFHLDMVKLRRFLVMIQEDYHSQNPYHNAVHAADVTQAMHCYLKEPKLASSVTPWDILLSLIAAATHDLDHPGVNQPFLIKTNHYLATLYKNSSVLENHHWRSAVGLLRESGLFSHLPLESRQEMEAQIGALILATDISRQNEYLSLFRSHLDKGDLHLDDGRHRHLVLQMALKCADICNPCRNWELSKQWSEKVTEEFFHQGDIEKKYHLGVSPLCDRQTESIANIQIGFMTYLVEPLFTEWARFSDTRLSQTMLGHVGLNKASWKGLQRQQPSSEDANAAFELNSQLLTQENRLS

Brain [7] = experiment: Free drug level in C57 mouse brain homogenate at 10 mg/kg, ip; type: ADME, organism-based; parameters: dose 10 mg/kg, route intraperitoneal; settings: in vivo
Brain [8] = experiment: Free drug level in C57 mouse brain homogenate at 100 mg/kg, ip; type: ADME, organism-based; parameters: dose 100 mg/kg, route intraperitoneal; settings: in vivo
Brain [9] = experiment: Free drug level in C57 mouse brain homogenate at 30 mg/kg, ip; type: ADME, organism-based; parameters: dose 30 mg/kg, route intraperitoneal; settings: in vivo
[10] = Ratio of drug level in brain to plasma in C57 mouse at 30 mg/kg, ip after 30 mins; type: ADME, organism-based; parameters: dose 30 mg/kg, route intraperitoneal; settings: read-out: BPR
[11] = Ratio of drug level in brain to plasma in C57 mouse at 100 mg/kg, ip after 30 mins; type: ADME, organism-based; parameters: dose 100 mg/kg, route intraperitoneal; settings: read-out: BPR
[12] = Drug uptake in C57 mouse brain at 100 mg/kg, ip after 30 mins; type: ADME, organism-based; parameters: dose 100 mg/kg, route intraperitoneal; settings: read-out: Drug uptake
[13] = Plasma concentration in C57 mouse at 100 mg/kg, ip after 30 mins; type: ADME, organism-based; parameters: dose 100 mg/kg, route intraperitoneal
[14] = Drug uptake in C57 mouse brain at 30 mg/kg, ip after 30 mins; type: ADME, organism-based; parameters: dose 30 mg/kg, route intraperitoneal; settings: read-out: Drug uptake
[15] = Plasma concentration in C57 mouse at 30 mg/kg, ip after 30 mins; type: ADME, organism-based; parameters: dose 30 mg/kg, route intraperitoneal
[16] = Tmax in C57 mouse at 30 mg/kg, ip; type: ADME, organism-based; parameters: dose 30 mg/kg, route intraperitoneal; settings: in vivo
[17] = Tmax in C57 mouse at 100 mg/kg, ip; type: ADME, organism-based; parameters: dose 100 mg/kg, route intraperitoneal; settings: in vivo
[18] = AUC in C57 mouse at 30 mg/kg, ip; type: ADME, organism-based; parameters: dose 30 mg/kg, route intraperitoneal; settings: plasma
[19] = AUC in C57 mouse at 100 mg/kg, ip; type: ADME, organism-based; parameters: dose 100 mg/kg, route intraperitoneal; settings: plasma
[20] = Cmax in C57 mouse at 100 mg/kg, ip; type: ADME, organism-based; parameters: dose 100 mg/kg, route intraperitoneal; settings: in vivo
[21] = Cmax in C57 mouse at 30 mg/kg, ip; type: ADME, organism-based; parameters: dose 30 mg/kg, route intraperitoneal; settings: in vivo
Brain [22] = experiment: Free drug level in C57 mouse brain homogenate at 1 uM by high throughput dialysis method; type: ADME, tissue-based; settings: in vivo
[23] = Tmax in C57 mouse at 10 mg/kg, ip; type: ADME, organism-based; parameters: dose 10 mg/kg, route intraperitoneal; settings: in vivo
[24] = AUC in C57 mouse at 10 mg/kg, ip; type: ADME, organism-based; parameters: dose 10 mg/kg, route intraperitoneal; settings: plasma
[25] = Ratio of drug level in brain to plasma in C57 mouse at 10 mg/kg, ip after 30 mins; type: ADME, organism-based; parameters: dose 10 mg/kg, route intraperitoneal; settings: read-out: BPR
[26] = Cmax in C57 mouse at 10 mg/kg, ip; type: ADME, organism-based; parameters: dose 10 mg/kg, route intraperitoneal; settings: in vivo
[27] = Plasma concentration in C57 mouse at 10 mg/kg, ip after 30 mins; type: ADME, organism-based; parameters: dose 10 mg/kg, route intraperitoneal
[28] = Drug uptake in C57 mouse brain at 10 mg/kg, ip after 30 mins; type: ADME, organism-based; parameters: dose 10 mg/kg, route intraperitoneal; settings: read-out: Drug uptake
[29] = Metabolic stability in mouse liver microsomes assessed as compound remaining after 60 mins; type: ADME, Microsome; settings: read-out: Stability
[30] = Metabolic stability in rat liver microsomes assessed as compound remaining after 60 mins; type: ADME, Microsome; settings: read-out: Stability
Homo sapiens [31] = species: Homo sapiens; experiment: Selectivity ratio of IC50 for cloned human recombinant PDE4D to IC50 for cloned human recombinant PDE7B
[32] = Metabolic stability in human liver microsomes assessed as compound remaining after 60 mins; type: ADME, Microsome; settings: read-out: Stability
Homo sapiens [33] = species: Homo sapiens; experiment: Selectivity ratio of IC50 for cloned human recombinant PDE4D to IC50 for cloned human recombinant PDE7A
[34] = molecular target: T2, 3',5'-cyclic-AMP phosphodiesterase 4D (Homo sapiens, UniProt Q08499); experiment: Inhibition of cloned human recombinant PDE4D assessed as [3H]cAMP hydrolysis by radiometric assay
[35] = molecular target: Dual 3',5'-cyclic-AMP and -GMP phosphodiesterase 11A (Homo sapiens) (UniProt Q9HCR9); experiment: Inhibition of cloned human recombinant PDE11A assessed as [3H]cAMP hydrolysis at 10 uM by radiometric assay
[36] = molecular target: cAMP and cAMP-inhibited cGMP 3',5'-cyclic phosphodiesterase 10A (Homo sapiens) (UniProt Q9Y233); experiment: Inhibition of cloned human recombinant PDE10A assessed as [3H]cAMP hydrolysis at 10 uM by radiometric assay
[37] = molecular target: High affinity cGMP-specific 3',5'-cyclic phosphodiesterase 9A (Homo sapiens) (UniProt O76083); experiment: Inhibition of cloned human recombinant PDE9A2 assessed as [3H]cAMP hydrolysis at 10 uM by radiometric assay
[38] = molecular target: High affinity cAMP-specific and IBMX-insensitive 3',5'-cyclic phosphodiesterase 8A (Homo sapiens) (UniProt O60658); experiment: Inhibition of cloned human recombinant PDE8A1 assessed as [3H]cAMP hydrolysis at 10 uM by radiometric assay
[39] = molecular target: cGMP-specific 3',5'-cyclic phosphodiesterase (Homo sapiens) (UniProt O76074); experiment: Inhibition of cloned human recombinant PDE5A assessed as [3H]cAMP hydrolysis at 10 uM by radiometric assay
[40] = molecular target: T2, 3',5'-cyclic-AMP phosphodiesterase 4D; experiment: Inhibition of cloned human recombinant PDE4D assessed as [3H]cAMP hydrolysis at 10 uM by radiometric assay
[41] = molecular target: cGMP-inhibited 3',5'-cyclic phosphodiesterase 3A (Homo sapiens) (UniProt Q14432); experiment: Inhibition of cloned human recombinant PDE3A assessed as [3H]cAMP hydrolysis at 10 uM by radiometric assay
[42] = molecular target: cGMP-dependent 3',5'-cyclic phosphodiesterase (Homo sapiens) (UniProt O00408); experiment: Inhibition of cloned human recombinant PDE2A assessed as [3H]cAMP hydrolysis at 10 uM by radiometric assay
[43] = molecular target: Dual specificity calcium/calmodulin-dependent 3',5'-cyclic nucleotide phosphodiesterase 1A (Homo sapiens) (UniProt P54750); experiment: Inhibition of cloned human recombinant PDE1A assessed as [3H]cAMP hydrolysis at 10 uM by radiometric assay
[44] = molecular target: 3',5'-cyclic-AMP phosphodiesterase 7B (Homo sapiens, UniProt Q9NP56); experiment: Inhibition of cloned human recombinant PDE7B assessed as [3H]cAMP hydrolysis by radiometric assay
[45] = molecular target: High affinity 3',5'-cyclic-AMP phosphodiesterase 7A (Homo sapiens, UniProt Q13946); experiment: Inhibition of cloned human recombinant PDE7A assessed as [3H]cAMP hydrolysis by radiometric assay
High affinity 3',5'-cyclic-AMP phosphodiesterase 7A (Homo sapiens, UniProt Q13946), sequence (Q13946 whole entry): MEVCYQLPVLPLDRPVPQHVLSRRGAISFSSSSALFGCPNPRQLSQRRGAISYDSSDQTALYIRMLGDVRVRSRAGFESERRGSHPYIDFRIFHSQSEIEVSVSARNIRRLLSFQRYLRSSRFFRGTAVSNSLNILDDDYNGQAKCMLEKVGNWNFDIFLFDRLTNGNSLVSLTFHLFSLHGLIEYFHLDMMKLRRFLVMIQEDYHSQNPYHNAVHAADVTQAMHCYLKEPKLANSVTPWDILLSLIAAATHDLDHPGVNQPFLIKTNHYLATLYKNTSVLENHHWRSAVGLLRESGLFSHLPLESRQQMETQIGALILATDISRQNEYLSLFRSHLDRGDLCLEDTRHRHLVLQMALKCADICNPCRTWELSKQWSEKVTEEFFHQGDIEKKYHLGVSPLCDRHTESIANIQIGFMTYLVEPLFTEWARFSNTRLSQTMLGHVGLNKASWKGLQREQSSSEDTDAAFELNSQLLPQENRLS

T2 sequence (Q08499 whole entry): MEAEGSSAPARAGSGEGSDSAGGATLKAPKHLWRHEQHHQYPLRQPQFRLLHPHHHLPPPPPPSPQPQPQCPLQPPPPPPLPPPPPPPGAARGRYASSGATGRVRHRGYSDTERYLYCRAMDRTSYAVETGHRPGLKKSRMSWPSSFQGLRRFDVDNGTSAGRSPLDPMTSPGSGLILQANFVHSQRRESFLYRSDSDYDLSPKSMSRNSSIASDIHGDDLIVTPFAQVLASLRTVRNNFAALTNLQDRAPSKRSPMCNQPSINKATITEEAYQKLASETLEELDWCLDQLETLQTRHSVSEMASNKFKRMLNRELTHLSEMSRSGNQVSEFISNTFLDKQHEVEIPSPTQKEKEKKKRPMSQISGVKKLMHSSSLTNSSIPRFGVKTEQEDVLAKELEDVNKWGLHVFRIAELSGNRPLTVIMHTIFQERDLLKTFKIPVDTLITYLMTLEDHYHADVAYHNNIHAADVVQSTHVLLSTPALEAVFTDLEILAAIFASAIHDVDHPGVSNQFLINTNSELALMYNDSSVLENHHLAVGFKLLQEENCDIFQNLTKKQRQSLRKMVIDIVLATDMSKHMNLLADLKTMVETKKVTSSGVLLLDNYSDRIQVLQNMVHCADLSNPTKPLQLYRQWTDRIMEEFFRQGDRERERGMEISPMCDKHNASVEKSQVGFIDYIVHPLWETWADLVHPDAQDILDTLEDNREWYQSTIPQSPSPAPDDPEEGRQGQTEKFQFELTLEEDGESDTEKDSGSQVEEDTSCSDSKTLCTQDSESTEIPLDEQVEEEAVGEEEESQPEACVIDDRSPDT
Dual 3',5'-cyclic-AMP and -GMP phosphodiesterase 11A (Homo sapiens), sequence (Q9HCR9 whole entry, looked up): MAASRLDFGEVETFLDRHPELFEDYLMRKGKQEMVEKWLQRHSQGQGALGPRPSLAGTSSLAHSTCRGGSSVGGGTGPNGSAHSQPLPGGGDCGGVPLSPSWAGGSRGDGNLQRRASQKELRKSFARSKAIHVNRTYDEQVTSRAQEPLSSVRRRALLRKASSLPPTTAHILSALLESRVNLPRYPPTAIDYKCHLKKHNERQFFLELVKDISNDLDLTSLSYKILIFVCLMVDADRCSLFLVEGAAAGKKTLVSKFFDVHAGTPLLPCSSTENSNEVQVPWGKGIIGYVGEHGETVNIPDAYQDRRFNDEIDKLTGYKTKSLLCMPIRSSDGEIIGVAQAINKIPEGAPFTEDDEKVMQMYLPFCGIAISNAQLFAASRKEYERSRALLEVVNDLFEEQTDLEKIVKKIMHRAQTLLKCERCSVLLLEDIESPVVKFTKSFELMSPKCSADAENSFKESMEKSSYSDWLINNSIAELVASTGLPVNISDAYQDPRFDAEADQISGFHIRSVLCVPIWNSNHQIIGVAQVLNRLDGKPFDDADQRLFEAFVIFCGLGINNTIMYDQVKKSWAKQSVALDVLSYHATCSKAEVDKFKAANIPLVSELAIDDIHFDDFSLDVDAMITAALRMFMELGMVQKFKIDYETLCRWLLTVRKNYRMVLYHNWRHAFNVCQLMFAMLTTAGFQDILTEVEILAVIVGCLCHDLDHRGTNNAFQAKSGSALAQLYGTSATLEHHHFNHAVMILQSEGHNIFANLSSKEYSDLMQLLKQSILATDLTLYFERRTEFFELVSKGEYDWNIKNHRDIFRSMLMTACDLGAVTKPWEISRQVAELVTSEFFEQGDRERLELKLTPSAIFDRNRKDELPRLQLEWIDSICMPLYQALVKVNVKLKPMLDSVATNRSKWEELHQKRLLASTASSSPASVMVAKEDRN
3',5'-cyclic-AMP phosphodiesterase 7B, sequence (Q9NP56 whole entry): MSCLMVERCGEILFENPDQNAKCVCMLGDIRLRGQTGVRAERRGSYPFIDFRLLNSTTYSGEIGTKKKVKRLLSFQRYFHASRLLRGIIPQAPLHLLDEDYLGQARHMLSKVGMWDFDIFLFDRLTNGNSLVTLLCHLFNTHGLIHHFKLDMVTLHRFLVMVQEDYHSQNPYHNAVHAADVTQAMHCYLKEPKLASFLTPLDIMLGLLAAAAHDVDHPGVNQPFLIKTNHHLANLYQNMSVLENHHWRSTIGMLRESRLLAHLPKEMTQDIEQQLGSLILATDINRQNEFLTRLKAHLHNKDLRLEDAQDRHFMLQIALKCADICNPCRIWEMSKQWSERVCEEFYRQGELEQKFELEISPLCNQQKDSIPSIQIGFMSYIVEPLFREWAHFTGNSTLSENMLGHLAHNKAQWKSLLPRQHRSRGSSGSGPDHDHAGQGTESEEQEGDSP
Dual specificity calcium/calmodulin-dependent 3',5'-cyclic nucleotide phosphodiesterase 1A (Homo sapiens), sequence (P54750 whole entry): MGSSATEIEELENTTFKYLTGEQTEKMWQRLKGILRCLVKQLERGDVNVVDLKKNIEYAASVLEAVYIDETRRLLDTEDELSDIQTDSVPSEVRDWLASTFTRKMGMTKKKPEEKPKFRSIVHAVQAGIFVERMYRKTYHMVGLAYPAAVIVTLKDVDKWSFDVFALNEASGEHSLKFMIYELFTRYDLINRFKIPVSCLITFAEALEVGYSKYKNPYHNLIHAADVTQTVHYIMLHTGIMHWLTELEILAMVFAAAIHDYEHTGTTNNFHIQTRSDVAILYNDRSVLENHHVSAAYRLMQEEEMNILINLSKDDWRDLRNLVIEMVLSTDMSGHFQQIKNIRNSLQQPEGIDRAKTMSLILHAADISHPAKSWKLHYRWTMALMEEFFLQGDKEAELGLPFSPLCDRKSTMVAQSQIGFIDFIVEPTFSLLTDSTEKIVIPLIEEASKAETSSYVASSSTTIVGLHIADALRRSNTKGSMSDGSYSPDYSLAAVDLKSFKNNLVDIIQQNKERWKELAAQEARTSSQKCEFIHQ
High affinity cAMP-specific and IBMX-insensitive 3',5'-cyclic phosphodiesterase 8A (Homo sapiens), sequence (O60658 whole entry): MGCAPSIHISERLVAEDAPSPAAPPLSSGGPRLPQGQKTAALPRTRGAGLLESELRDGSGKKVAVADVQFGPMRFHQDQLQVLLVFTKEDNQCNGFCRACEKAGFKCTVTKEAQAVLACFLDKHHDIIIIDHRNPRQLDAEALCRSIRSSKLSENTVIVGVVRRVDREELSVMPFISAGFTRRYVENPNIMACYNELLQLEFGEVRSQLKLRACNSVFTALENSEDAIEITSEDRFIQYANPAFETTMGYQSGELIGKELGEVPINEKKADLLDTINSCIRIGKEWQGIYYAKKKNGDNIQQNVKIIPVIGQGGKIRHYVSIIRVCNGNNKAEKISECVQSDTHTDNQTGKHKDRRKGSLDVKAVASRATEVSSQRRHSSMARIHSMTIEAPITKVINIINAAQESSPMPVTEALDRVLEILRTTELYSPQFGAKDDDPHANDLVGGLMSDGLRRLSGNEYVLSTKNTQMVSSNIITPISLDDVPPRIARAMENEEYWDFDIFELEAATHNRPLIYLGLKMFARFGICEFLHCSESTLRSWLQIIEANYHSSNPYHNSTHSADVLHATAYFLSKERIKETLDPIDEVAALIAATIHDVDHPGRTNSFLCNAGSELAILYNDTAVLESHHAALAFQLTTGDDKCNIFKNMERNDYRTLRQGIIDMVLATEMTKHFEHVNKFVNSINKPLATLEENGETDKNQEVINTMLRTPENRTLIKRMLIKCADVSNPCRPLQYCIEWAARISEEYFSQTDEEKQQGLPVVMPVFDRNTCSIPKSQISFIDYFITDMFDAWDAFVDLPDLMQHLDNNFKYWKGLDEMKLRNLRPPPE
cGMP-dependent 3',5'-cyclic phosphodiesterase (Homo sapiens), sequence (O00408 whole entry): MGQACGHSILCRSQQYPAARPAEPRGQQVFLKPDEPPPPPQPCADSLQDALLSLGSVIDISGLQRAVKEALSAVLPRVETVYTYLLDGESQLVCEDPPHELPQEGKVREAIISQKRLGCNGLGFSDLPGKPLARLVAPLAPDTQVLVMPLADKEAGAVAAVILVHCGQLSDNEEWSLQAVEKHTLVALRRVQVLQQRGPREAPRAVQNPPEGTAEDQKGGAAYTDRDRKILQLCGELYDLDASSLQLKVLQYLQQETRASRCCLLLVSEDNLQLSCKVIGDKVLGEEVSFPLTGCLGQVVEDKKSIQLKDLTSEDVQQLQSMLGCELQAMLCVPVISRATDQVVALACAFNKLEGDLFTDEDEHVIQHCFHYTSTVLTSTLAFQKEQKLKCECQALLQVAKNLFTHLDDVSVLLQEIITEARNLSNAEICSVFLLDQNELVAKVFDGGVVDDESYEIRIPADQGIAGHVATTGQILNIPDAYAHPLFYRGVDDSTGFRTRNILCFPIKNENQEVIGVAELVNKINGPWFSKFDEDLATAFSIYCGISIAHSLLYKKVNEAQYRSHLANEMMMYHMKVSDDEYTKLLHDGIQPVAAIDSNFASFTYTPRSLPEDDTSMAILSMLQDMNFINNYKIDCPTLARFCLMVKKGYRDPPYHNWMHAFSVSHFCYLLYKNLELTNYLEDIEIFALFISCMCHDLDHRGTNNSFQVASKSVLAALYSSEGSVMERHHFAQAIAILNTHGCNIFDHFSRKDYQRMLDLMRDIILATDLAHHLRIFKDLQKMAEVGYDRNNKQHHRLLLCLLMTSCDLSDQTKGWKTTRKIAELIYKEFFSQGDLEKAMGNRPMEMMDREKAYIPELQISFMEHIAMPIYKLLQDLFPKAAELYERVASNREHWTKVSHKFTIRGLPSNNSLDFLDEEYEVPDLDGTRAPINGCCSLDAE

SMILES: COc1cc(N)ccc1-c1nc2c(C)nn(C3CCCCC3)c(=O)c2[nH]1
- Activity (Mus musculus [1]): Toxic
- Activity (Mus musculus [2]): Toxic
- Activity (Mus musculus [3]): Non-toxic
- Activity (Mus musculus [4]): Toxic
- Activity (Mus musculus [5]): inactive
- IC50 [6]: 63 nM
- Drug uptake(free) (Brain [7]): 6 nM
- Drug uptake(free) (Brain [8]): 763 nM
- Drug uptake(free) (Brain [9]): 91 nM
- Kp at 0.5 h [10]: 3.43
- Kp at 0.5 h [11]: 3.05
- concentration at 0.5 h [12]: 135000 ng/g
- concentration at 0.5 h [13]: 44200 ng/mL
- concentration at 0.5 h [14]: 16000 ng/g
- concentration at 0.5 h [15]: 4680 ng/mL
- Tmax [16]: 15 min
- Tmax [17]: 30 min
- AUC [18]: 5020 ng·h/mL
- AUC [19]: 168 µg·h/mL
- Cmax [20]: 44200 ng/mL
- Cmax [21]: 6350 ng/mL
- Drug uptake(free) (Brain [22]): 0.2%
- Tmax [23]: 15 min
- AUC [24]: 792 ng·h/mL
- Kp at 0.5 h [25]: 1.69
- Cmax [26]: 1480 ng/mL
- concentration at 0.5 h [27]: 699 ng/mL
- concentration at 0.5 h [28]: 1140 ng/g
- remaining at 1 h [29]: 4%
- remaining at 1 h [30]: 68%
- Ratio IC50 (Homo sapiens [31]): > 150
- remaining at 1 h [32]: 43%
- Ratio IC50 (Homo sapiens [33]): > 200
- IC50 [34]: 6.55 µM
- inhibition [35]: 10%
- inhibition [36]: 23%
- inhibition [37]: 9%
- inhibition [38]: 0%
- inhibition [39]: 3%
- inhibition [40]: 86%
- inhibition [41]: 6%
- inhibition [42]: 29%
- inhibition [43]: 37%
- IC50 [44]: 43 nM
- IC50 [45]: 31 nM
